In patent US11505523B2, “HDAC8 inhibitors for treating cancer” (City of Hope, priority 2013, dated 2022):
Several values for one entry are separate records, joined by “and”; a condition that tells them apart may be missing. Identical values can stand only once.

Experiments:
[1] = molecular target: HDAC8 (Homo sapiens (Human), UniProt Q9BY41); assay: Inhibition of HDAC8; type: biochemical; conditions: for IC50 PCI34051/IC50 compound: inhibition of HDAC8, relative potency (Tables 1-3); for A (relative potency to PCI34051): inhibition of HDAC8, footnote: (Tables 11-13); for IC50: mean SD of three determinations; for HDAC8 inhibitory activity compared with PCI34051: result in words
HDAC8, sequence (Q9BY41 whole entry): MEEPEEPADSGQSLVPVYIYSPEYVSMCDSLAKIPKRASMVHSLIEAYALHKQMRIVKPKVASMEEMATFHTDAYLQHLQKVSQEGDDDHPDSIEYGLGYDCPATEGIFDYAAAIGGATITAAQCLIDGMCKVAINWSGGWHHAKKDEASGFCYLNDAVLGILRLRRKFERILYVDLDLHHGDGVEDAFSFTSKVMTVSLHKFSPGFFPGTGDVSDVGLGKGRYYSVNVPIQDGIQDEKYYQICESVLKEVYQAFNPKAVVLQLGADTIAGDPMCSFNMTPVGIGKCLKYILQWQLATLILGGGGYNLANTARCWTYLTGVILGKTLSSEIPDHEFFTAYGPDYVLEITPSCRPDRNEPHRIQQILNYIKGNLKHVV

[2] = system: HeLa nuclear HDACs; assay: Inhibition of HeLa nuclear HDACs (HeLa nuclear extract, mainly HDACs1-3); type: biochemical; conditions: read-out: HeLa HDAC IC50
[3] = system: MV4-11 cells; assay: Survival/apoptosis of MV4-11 AML cells by Annexin V labeling; type: cell-based, human; conditions: Homo sapiens, read-out: MV4-11 Apoptosis IC50
[4] = system: MOLM13 cells; assay: Survival/apoptosis of MOLM13 AML cells by Annexin V labeling; type: cell-based, human; conditions: Homo sapiens, read-out: MOLM13 Apoptosis IC50
[5] = system: OCI-AML3 cells; assay: Survival/apoptosis of OCI-AML3 AML cells by Annexin V labeling; type: cell-based, human; conditions: Homo sapiens, OCI-AML-3, 48 h, read-out: OCI-AML3 Apoptosis IC50
[6] = system: MV4-11 cells; assay: Proliferation of MV4-11 cells, luminescent cell viability assay; type: cell-based, human; conditions: Homo sapiens, read-out: MV4-11 Proliferation IC50
[7] = system: MOLM13 cells; assay: Proliferation of MOLM13 cells, luminescent cell viability assay; type: cell-based, human; conditions: Homo sapiens, read-out: MOLM13 Proliferation IC50
[8] = system: H1299 cells; assay: Cytotoxicity / anti-proliferative activity in H1299 lung cancer cells; conditions: read-out: Cytotoxicity IC50 H1299; mean SD of three determinations
[9] = system: Cl1-1 cells; assay: Cytotoxicity / anti-proliferative activity in CL1-1 lung cancer cells; conditions: read-out: Cytotoxicity IC50 Cl1-1; mean SD of three determinations
[10] = system: CL1-5 cells; assay: Cytotoxicity / anti-proliferative activity in CL1-5 lung cancer cells; conditions: read-out: Cytotoxicity IC50 Cl1-5; mean SD of three determinations

IC50 PCI34051/IC50 compound [1]	A (relative potency to PCI34051) [1]	IC50 [2] [µM]	SMILES	IC50 [1]	further results
0.29	0.29	> 10	COc1ccc(/C=C/C(=O)NO)c(-c2cc(OC)c(OC)c(OC)c2)c1 [Compound 5a]	–	–
1.17	1.17	> 10	COc1ccc(/C=C/C(=O)NO)c(-c2cccc(Cl)c2)c1 [Compound 5c]	–	–
1.90	1.90	> 10	COc1ccc(/C=C/C(=O)NO)c(-c2ccc(F)cc2)c1 [Compound 5d]	–	–
0.28	0.28	0.7984 ± 0.0003	COc1ccc(/C=C/C(=O)NO)c(-c2cncc3ccccc23)c1 [Compound 5g]	–	–
0.17	0.17	> 10	COc1ccc(/C=C/C(=O)NO)c(Nc2ccccc2OC)c1 [Compound 6b]	–	–
0.44	0.44	> 10	COc1cccc(Nc2cc(OC)ccc2/C=C/C(=O)NO)c1 [Compound 6c]	–	–
0.30	0.30	> 10	COc1ccc(Nc2cc(OC)ccc2/C=C/C(=O)NO)cc1 [Compound 6d]	–	–
0.44	0.44	> 10	COc1ccc(/C=C/C(=O)NO)c(Nc2ccc(OC)c(OC)c2)c1 [Compound 6e]	–	–
0.24	0.24	> 10	COc1ccc(/C=C/C(=O)NO)c(Nc2cc(OC)c(OC)c(OC)c2)c1 [Compound 6f]	–	–
–	–	> 10	COc1ccc(/C=C/C(=O)NO)c(OCc2ccccc2)c1 [Compound 13a, (E)-N-Hydroxy-2-benzyloxy-4-methoxycinnamide]	0.207 ± 0.0134 µM	–
–	–	> 10	COc1ccc(/C=C/C(=O)NO)c(OCc2ccc(Br)cc2)c1 [Compound 13c, (E)-N-Hydroxy-2-(4-bromobenzyloxy)-4-methoxycinnamide]	–	–
–	–	> 10	COc1ccc(COc2cc(OC)ccc2/C=C/C(=O)NO)cc1 [Compound 13d, (E)-N-Hydroxy-2-(4-methoxybenzyloxy)-4-methoxycinnamide]	0.397 ± 0.0127 µM	–
0.38	0.38	> 10	COc1cc(Nc2cc(F)ccc2/C=C/C(=O)NO)cc(OC)c1OC [Compound 15a]	–	–
0.55	0.55	> 10	COc1cc(Nc2cc(C(F)(F)F)ccc2/C=C/C(=O)NO)cc(OC)c1OC [Compound 15b]	–	–
0.44	0.44	> 10	COc1cc(Nc2c(/C=C/C(=O)NO)ccc(OC)c2OC)cc(OC)c1OC [Compound 15d]	–	–
–	–	> 10	COc1ccc(OCCOc2cc(OC)ccc2/C=C/C(=O)NO)cc1 [Compound 18a, (E)-N-Hydroxy-2-(2-(4-methoxyphenoxyoxy)ethoxy)-4-methoxycinnamide]	0.122 ± 0.0035 µM	–
–	–	> 10	COc1ccc(OC(C)COc2cc(OC)ccc2/C=C/C(=O)NO)cc1 (stereo not shown) [Compound 18b, (E)-N-Hydroxy-2-(2-(4-methoxyphenoxyoxy)propoxy)-4-methoxycinnamide]	0.191 ± 0.0022 µM	–
–	–	> 10	CCCC(COc1cc(OC)ccc1/C=C/C(=O)NO)Oc1ccc(OC)cc1 (stereo not shown) [Compound 18d, (E)-N-Hydroxy-2-(2-(4-methoxyphenoxyoxy)pentyloxy)-4-methoxycinnamide]	0.2 ± 0.0065 µM	–
0.68	0.68	> 10	COc1cc(Nc2ncccc2/C=C/C(=O)NO)cc(OC)c1OC [Compound 21]	–	–
0.49	0.49	> 10	COc1ccc(/C=C/C(=O)NO)c(Oc2cc(OC)c(OC)c(OC)c2)c1 [Compound 25]	–	–

Continued, compound first:

SMILES	IC50 PCI34051/IC50 compound [1]	A (relative potency to PCI34051) [1]	IC50 [2] [µM]	IC50 [1]	further results
COc1ccc(/C=C/C(=O)NO)c(-c2cccs2)c1 [Compound 5b]	1.43	1.43	> 10	–	IC50 ([3]; MV4-11, 48 h): 0.524 µM; IC50 ([4]; MOLM-13, 48 h): 0.345 µM; IC50 [5]: 2.35 µM; IC50 ([6]; MV4-11, 48 h): 0.0825 µM; IC50 ([7]; MOLM-13, 48 h): 0.0533 µM
COc1ccc(/C=C/C(=O)NO)c(-c2ccc3c(c2)OCO3)c1 [Compound 5e]	1.86	1.86	8.55 ± 0.00012	–	IC50 ([3]; MV4-11, 48 h): 11.9 µM; IC50 ([4]; MOLM-13, 48 h): 11.7 µM; IC50 [5]: 12.5 µM; IC50 ([6]; MV4-11, 48 h): 7.49 µM; IC50 ([7]; MOLM-13, 48 h): 3.36 µM
COc1ccc(/C=C/C(=O)NO)c(-c2cccc3[nH]ccc23)c1 [Compound 5f]	0.64	0.64	> 10	–	–
COc1ccc(/C=C/C(=O)NO)c(-c2cnc3ccccc3c2)c1 [Compound 5h]	0.63	0.63	0.836 ± 0.0091	–	IC50 ([3]; MV4-11, 48-hr, Annexin V labeling): ~22700 µM; IC50 ([4]; MOLM-13, 48-hr, Annexin V labeling): 90.9 µM; IC50 ([6]; MV4-11, 48-hr, luminescent cell viability assay): 16.6 µM; IC50 ([7]; MOLM-13, 48-hr, luminescent cell viability assay): 7.17 µM
COc1ccc(/C=C/C(=O)NO)c(Nc2ccccc2)c1 [Compound 6a]	0.40	0.40	> 10	–	–
COc1ccc(/C=C/C(=O)NO)c(-c2ccccc2)c1 [Compound 22a, (E)-N-Hydroxy-4-methoxy-2-phenylcinnamide]	–	–	> 10	0.072 µM and 0.0724 µM	–
COc1ccc(/C=C/C(=O)NO)c(-c2cccc3ccccc23)c1 [Compound 22c, (E)-N-Hydroxy-4-methoxy-2-(naphthalen-1-yl)cinnamide]	–	–	> 10	0.078 ± 0.0043 µM	–
COc1ccc(/C=C/C(=O)NO)c(-c2ccc(Oc3ccccc3)cc2)c1 [Compound 22e, (E)-N-Hydroxy-4-methoxy-2-(4-phenoxyphenyl)cinnamide]	–	–	> 10	0.174 ± 0.0059 µM	fold less potent than 22a (HDAC8) [1]: three
COc1ccc(/C=C/C(=O)NO)c(-c2ccc(C(=O)c3ccccc3)cc2)c1 [Compound 22f, (E)-N-Hydroxy-4-methoxy-2-(4-benzoylphenyl)cinnamide]	–	–	> 10	0.0418 ± 0.0033 µM	HDAC8 inhibitory activity compared with PCI34051 [1]: superior to PCI34051; IC50 [8]: 0.0084 ± 0.0002 µM; IC50 [9]: > 0.01 µM; IC50 [10]: > 0.01 µM
COc1ccc(/C=C/C(=O)NO)c(-c2cccc3c2oc2ccccc23)c1 [Compound 22g, (E)-N-Hydroxy-4-methoxy-2-(dibenzofuran-4-yl)cinnamide]	–	–	> 10	0.0477 ± 0.0007 µM	HDAC8 inhibitory activity compared with PCI34051 [1]: superior to PCI34051; IC50 [8]: 0.0066 ± 0.0007 µM; IC50 [9]: 0.0085 ± 0.0012 µM; IC50 [10]: 0.0087 ± 0.0001 µM
CCCOc1ccc(/C=C/C(=O)NO)c(-c2ccccc2)c1 [Compound 27a, (E)-N-Hydroxy-4-propoxy-2-phenylcinnamide]	–	–	> 10	0.133 ± 0.0126 µM	–
CCCCOc1ccc(/C=C/C(=O)NO)c(-c2ccccc2)c1 [Compound 27b, (E)-N-Hydroxy-4-butoxy-2-phenylcinnamide]	–	–	> 10	0.289 ± 0.0301 µM	–
CCCCCOc1ccc(/C=C/C(=O)NO)c(-c2ccccc2)c1 [Compound 27c, (E)-N-Hydroxy-4-pentoxy-2-phenylcinnamide]	–	–	> 10	0.186 ± 0.0598 µM	–
O=C(/C=C/c1ccc(-c2ccccc2)cc1-c1ccccc1)NO [Compound 27d, (E)-N-Hydroxy-2,4-diphenylcinnamide]	–	–	> 10	0.1749 ± 0.0002 µM	–
